System: brain proteome
Experiment: Brain proteomics (DIA LC-MS/MS) after chronic NVS-PAK1-1 100 mg/kg BID PO vs vehicle in 5xFAD mice
Assay type: in vivo
Details: for NES (gene set enrichment), NVS-PAK1-1 vs vehicle: Young Female
Procedure: A total of 91 brain samples were prepared from mice in this study and analyzed by mass spectrometry proteomics. One third of the mixed‐chopped left hemisphere tissue was homogenized in 8 M urea lysis buffer (8 M urea, 10 mM Tris, 100 mM NaH2PO4, pH 8.5) with HALT protease and phosphatase inhibitor cocktail (Thermo Fisher) and sonicated for three cycles consisting of 5 seconds of active sonication at 30% amplitude, followed by 15 seconds on ice. Samples were then centrifuged for 5 minutes at 15,000 g and the supernatant was transferred to a new tube. Protein concentration was determined by bicinchoninic acid (BCA) assay (Pierce). For protein digestion, 200 µg of each sample was aliquoted and volumes normalized with additional lysis buffer. Samples were reduced with 5 mM DTT at room temperature for 30 minutes, followed by 10 mM iodoacetamide (IAA) alkylation in the dark for another 30 minutes. Lysyl endopeptidase (Wako) at 1:25 (w/w) was added, and digestion allowed to proceed overnight. Samples were then 7‐fold diluted with 50 mM ammonium bicarbonate. Trypsin (Promega) was then added at 1:25 (w/w) and digestion proceeded overnight. The peptide solutions were acidified to a final concentration of 1% (vol/vol) FA and 0.1% (vol/vol) TFA and desalted with a 10 mg HLB column (Oasis). Each HLB column was first rinsed with 1 mL of methanol, washed with 1 mL 50% (vol/vol) acetonitrile (ACN), and equilibrated with 2 × 1 mL 0.1% (vol/vol) TFA. The samples were then loaded onto the column and washed with 2 × 1 mL 0.1% (vol/vol) TFA. Elution was performed with 0.5 mL 50% (vol/vol) ACN. Samples were split into 50 µL and 400 µL aliquots. Residuals from all samples were combined to create a global internal standard pool.
Samples were resuspended in an equal volume of loading buffer (0.1% FA, 0.03% TFA, 1% ACN) and analyzed by LC‐MS/MS. Peptide eluents (1 µg) were separated on a Water's CSH (15 cm × 150 µM internal diameter [ID] with 1.7 µm CSH resin) by a Dionex Ultimate 3000 RSLCnano (Thermo Fisher). Buffer A was water with 0.1% (vol/vol) formic acid, and buffer B was 80% (vol/vol) acetonitrile in water with 0.1% (vol/vol) FA. Elution was performed over a 30 minute gradient. The gradient was from 1% to 99% solvent B. Peptides were monitored on an Orbitrap Fusion Lumos mass spectrometer (Thermo Fisher). Each cycle consisted of one full scan (MS1) performed with an m/z range of 380 to 985 at a 60,000 resolution at standard settings and 30 data independent scans (DIA) in 1.5 seconds. The higher energy collision‐induced dissociation (HCD) tandem scans were collected at 30% collision energy with an isolation of 10 m/z, a resolution of 15,000, an AGC setting of 200% normalized AGC target, and a maximum injection time set to 40 ms.
Raw data files were converted to mzML format for downstream processing using ThermoRawFilerParser v.1.4.4.[30] The data were processed using Data‐Independent Acquisition by Neural Network (DIA‐NN) v.1.9.1.[31] A spectral library was generated using all canonical mouse proteins from UniProt and SwissProt (accessed September 24, 2024) and contaminants from the Common Repository of Adventitious Proteins (cRAP) database [https://www.thegpm.org/crap/]; these contaminant proteins were excluded from normalization and downstream analysis. DIA‐NN was run using parameters specified as follows: precursor charge was set from 1 to 4 and precursor m/z was set from 200 to 5000. Enzyme digestion was set to strict trypsin with 1 allowed missed cleavage, peptide length was set from 7 to 50, and peptide m/z was set from 150 to 3000. The maximum number of variable modifications was set to 3 and methionine oxidation was allowed as a variable modification. Cysteine carbamidomethylation was allowed as a fixed modification. MS1 and MS2 mass accuracy (in ppm) were set using autodetect and the scan window was set using autodetect. The false discovery rate (FDR) threshold was set to 1%. […]

With `CC(C)NC(=O)N1CC[C@H](NC2=Nc3cc(F)ccc3N(CC(F)F)c3ccc(Cl)cc32)C1` [NVS‐PAK1‐1, (S)‐3‐([2‐chloro‐5‐(2,2‐difluoroethyl)‐8‐fluoro‐5H‐dibenzo[b,e][1,4]diazepin‐11‐yl]amino)‐N‐isopropylpyrrolidine‐1‐carboxamide] the “logFC, FAD5X_A_tx vs FAD5X_B_veh” value (ATP8, Aged M 5xFAD brain) was -0.1292, the logFC_NVS.PAK1.1_vs_vehicle (Acat2, Young F 5xFAD brain) was -0.07095 and the logFC_NVS.PAK1.1_vs_vehicle (Acly, Young F 5xFAD brain) was -0.0659. It also gave a logFC_NVS.PAK1.1_vs_vehicle (Acly, Young M 5xFAD brain) of -0.07659, a logFC_NVS.PAK1.1_vs_vehicle (Agk, Young F 5xFAD brain) of 0.08371 and a logFC_NVS.PAK1.1_vs_vehicle (Agl, Young F 5xFAD brain) of -0.0869. For the same compound, the logFC_NVS.PAK1.1_vs_vehicle (Aldh1l1, Young F 5xFAD brain) was -0.1253, the logFC_NVS.PAK1.1_vs_vehicle (Anxa6, Young M 5xFAD brain) was -0.118 and the logFC_NVS.PAK1.1_vs_vehicle (App, Young F 5xFAD brain) was -0.2576. For the same compound, the logFC_NVS.PAK1.1_vs_vehicle (Armcx5, Young M 5xFAD brain) was 0.3268, the logFC_NVS.PAK1.1_vs_vehicle (Atl2, Aged F 5xFAD brain) was -0.08745 and the logFC_NVS.PAK1.1_vs_vehicle (Atp2b4, Young M 5xFAD brain) was 0.1099. For the same compound, the logFC_NVS.PAK1.1_vs_vehicle (Atp5if1, Aged F 5xFAD brain) was -0.5225, the logFC_NVS.PAK1.1_vs_vehicle (Calr, Young F 5xFAD brain) was -0.07235 and the logFC_NVS.PAK1.1_vs_vehicle (Cep170b, Young M 5xFAD brain) was 0.1293. It also gave a logFC_NVS.PAK1.1_vs_vehicle (Cfap61, Young F 5xFAD brain) of -0.4846, a logFC_NVS.PAK1.1_vs_vehicle (Cfl2, Young F 5xFAD brain) of 0.1353 and a logFC_NVS.PAK1.1_vs_vehicle (Chordc1, Young F 5xFAD brain) of -0.1408. The logFC_NVS.PAK1.1_vs_vehicle (Ciapin1, Young M 5xFAD brain) was -0.1789, the logFC_NVS.PAK1.1_vs_vehicle (Cops5, Aged M 5xFAD brain) was 0.1116 and the logFC_NVS.PAK1.1_vs_vehicle (Cox7a2, Aged F 5xFAD brain) was -0.07809. For the same compound, the logFC_NVS.PAK1.1_vs_vehicle (Dctn3, Young F 5xFAD brain) was -0.07573, the logFC_NVS.PAK1.1_vs_vehicle (Echdc1, Young F 5xFAD brain) was -0.211 and the logFC_NVS.PAK1.1_vs_vehicle (Eef1b, Young F 5xFAD brain) was -0.1102. For the same compound, the logFC_NVS.PAK1.1_vs_vehicle (Eef2, Young F 5xFAD brain) was -0.07944, the logFC_NVS.PAK1.1_vs_vehicle (Ehd3, Aged M 5xFAD brain) was 0.04696 and the logFC_NVS.PAK1.1_vs_vehicle (Eif1, Young F 5xFAD brain) was -0.1062. It also gave a logFC_NVS.PAK1.1_vs_vehicle (Elfn2, Aged M 5xFAD brain) of -0.27, a logFC_NVS.PAK1.1_vs_vehicle (Fasn, Young F 5xFAD brain) of -0.08056 and a logFC_NVS.PAK1.1_vs_vehicle (Fdps.1, Young F 5xFAD brain) of -0.1222. For the same compound, the logFC_NVS.PAK1.1_vs_vehicle (Fn3krp, Aged M 5xFAD brain) was 0.1203, the “NES (gene set enrichment), NVS-PAK1-1 vs vehicle” value (shortened to “NES … vs vehicle”) (GO:0005740 mitochondrial envelope) was 2.24 and the “NES … vs vehicle” value (GO:0005743 mitochondrial inner membrane) was 2.303. The “NES … vs vehicle” value (GO:0019866 organelle inner membrane) was 2.289, the “NES … vs vehicle” value (GO:0031966 mitochondrial membrane) was 2.233 and the logFC_NVS.PAK1.1_vs_vehicle (Gap43, Young F 5xFAD brain) was 0.1885. For the same compound, the logFC_NVS.PAK1.1_vs_vehicle (Gnb1.1, Aged F 5xFAD brain) was -0.6461, the logFC_NVS.PAK1.1_vs_vehicle (Gng2, Young M 5xFAD brain) was 0.102 and the “logFC, FAD5X_A_tx vs FAD5X_B_veh” value (HC;Ighg2b, Aged M 5xFAD brain) was 0.3576. It also gave a logFC_NVS.PAK1.1_vs_vehicle (Hnrnpf, Aged F 5xFAD brain) of -0.0585, a logFC_NVS.PAK1.1_vs_vehicle (Hprt1, Young F 5xFAD brain) of 0.09623 and a logFC_NVS.PAK1.1_vs_vehicle (Hsp90ab1, Young F 5xFAD brain) of -0.08556. It also gave a logFC_NVS.PAK1.1_vs_vehicle (Hsp90b1, Young F 5xFAD brain) of -0.1385, a logFC_NVS.PAK1.1_vs_vehicle (Hspa8.1, Young F 5xFAD brain) of -0.05148 and a logFC_NVS.PAK1.1_vs_vehicle (Hsph1, Young F 5xFAD brain) of -0.0893. It also gave a logFC_NVS.PAK1.1_vs_vehicle (Idh1, Young F 5xFAD brain) of -0.08685, a logFC_NVS.PAK1.1_vs_vehicle (Idi1, Young F 5xFAD brain) of -0.1582 and a logFC_NVS.PAK1.1_vs_vehicle (Kctd16, Young M 5xFAD brain) of 0.1263. The logFC_NVS.PAK1.1_vs_vehicle (Klc1, Young F 5xFAD brain) was -0.06729, the logFC_NVS.PAK1.1_vs_vehicle (Lcmt1, Young F 5xFAD brain) was -0.08416 and the logFC_NVS.PAK1.1_vs_vehicle (Lcp1, Young F 5xFAD brain) was -0.2692. It also gave a logFC_NVS.PAK1.1_vs_vehicle (Lrfn4, Aged F 5xFAD brain) of 0.3404 and a logFC_NVS.PAK1.1_vs_vehicle (Ly6h, Young M 5xFAD brain) of 0.08528.

Reference: publication PMC12741935 (Alzheimer's & Dementia, 2025)
